# Results reported in ChEMBL document CHEMBL1156275, “Thioether acetamides as P3 binding elements for tetrahydropyrido-pyrazole cathepsin S inhibitors” (Bioorg Med Chem Lett, 2010).
# Assays:
# [1] = target: T1, Cathepsin S (Homo sapiens, UniProt P25774); test: Inhibition of cathepsin S in human JY cells assessed as accumulation of invariant chain p10li after 24 hrs by Western blot analysis; format: cell-based
# [2] = target: T1, Cathepsin S; test: Inhibition of human recombinant cathepsin S expressed in baculovirus expression sytem after 15 mins by FRET assay
# T1 sequence (P25774 whole entry): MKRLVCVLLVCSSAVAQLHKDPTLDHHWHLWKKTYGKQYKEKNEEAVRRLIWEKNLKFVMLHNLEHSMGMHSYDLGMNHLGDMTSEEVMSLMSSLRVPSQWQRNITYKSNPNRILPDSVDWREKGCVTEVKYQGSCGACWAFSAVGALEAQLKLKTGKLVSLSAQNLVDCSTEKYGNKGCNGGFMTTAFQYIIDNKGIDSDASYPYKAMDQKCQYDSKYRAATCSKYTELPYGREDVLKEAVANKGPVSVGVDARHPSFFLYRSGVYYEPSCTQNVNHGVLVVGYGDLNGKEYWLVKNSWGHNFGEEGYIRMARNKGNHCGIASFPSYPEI
IC50 [1] [µM],IC50 [2] [µM],SMILES
8,0.21,CC1CCN(C(=O)CSc2cc(-c3nn(CCCN4CCC(N5CCCC5=O)CC4)c4c3CN(S(C)(=O)=O)CC4)ccc2C(F)(F)F)CC1
3.92,0.07,CS(=O)(=O)N1CCc2c(c(-c3ccc(C(F)(F)F)c(SCC(=O)N4CCCCC4)c3)nn2CCCN2CCC(N3CCCC3=O)CC2)C1
1.97,,CS(=O)(=O)N1CCc2c(c(-c3ccc(C(F)(F)F)c(SCC(=O)N4CCCC4)c3)nn2CCCN2CCC(N3CCCC3=O)CC2)C1
0.28,0.04,CS(=O)(=O)N1CCc2c(c(-c3ccc(C(F)(F)F)c(SCC(=O)N4CCCC4)c3)nn2CCCN2CCC(C(=O)N3CCCC3)CC2)C1
0.12,,COc1ccccc1C1CCN(CC(O)Cn2nc(-c3ccc(C(F)(F)F)c(SCC(=O)N4CCCC4)c3)c3c2CCNC3)CC1 (racemic)
0.45,0.02,CS(=O)(=O)N1CCc2c(c(-c3ccc(C(F)(F)F)c(SCC(=O)N4CCOCC4)c3)nn2CCCN2CCC(N3CCCC3=O)CC2)C1
0.11,,CC(=O)N1CCc2c(c(-c3ccc(C(F)(F)F)c(SCC(=O)N4CCCC4)c3)nn2CC(O)CN2CCC(C(C)(C)O)CC2)C1 (racemic)
0.08,0.18,CC(=O)N1CCc2c(c(-c3ccc(C(F)(F)F)c(SCC(=O)N4CCCC4)c3)nn2CC(O)CN2CCC(C)CC2)C1 (racemic)
0.47,0.001,CS(=O)(=O)N1CCc2c(c(-c3ccc(C(F)(F)F)c(SCC(=O)N4CCCC4)c3)nn2CC(O)CN2CCC(c3ccccn3)CC2)C1 (racemic)
0.38,,CS(=O)(=O)N1CCc2c(c(-c3ccc(C(F)(F)F)c(SCC(=O)N4CCOCC4)c3)nn2CC(O)CN2CCC(c3ccccn3)CC2)C1 (racemic)
1.85,0.19,COc1ccccc1C1CCN(CC(O)Cn2nc(-c3ccc(C(F)(F)F)c(SCC(=O)N4CCOCC4)c3)c3c2CCNC3)CC1 (racemic)
0.19,,COc1ccccc1C1CCN(CC(O)Cn2nc(-c3ccc(C(F)(F)F)c(SCC(=O)N4CCOCC4)c3)c3c2CCN(S(C)(=O)=O)C3)CC1 (racemic)
0.04,,CS(=O)(=O)N1CCc2c(c(-c3ccc(C(F)(F)F)c(SCCN4CCCCC4)c3)nn2CCCN2CCC(N3CCCC3=O)CC2)C1
0.48,,COc1ccccc1C1CCN(CC(O)Cn2nc(-c3ccc(C(F)(F)F)c(SCC(=O)N4CCOCC4)c3)c3c2CCN(C(=O)CO)C3)CC1 (racemic)
1.68,,O=C(CSc1cc(-c2nn(CC(O)CN3CCC(c4ccccn4)CC3)c3c2CNCC3)ccc1C(F)(F)F)N1CCOCC1 (racemic)
0.03,0.007,CS(=O)(=O)N1CCc2c(c(-c3ccc(C(F)(F)F)c(SCC(=O)N4CC[C@@H](O)C4)c3)nn2CC(O)CN2CCC(c3ccccn3)CC2)C1 (mixture of isomers)
6,,CC1CCCN1C(=O)CSc1cc(-c2nn(CCCN3CCC(N4CCCC4=O)CC3)c3c2CN(S(C)(=O)=O)CC3)ccc1C(F)(F)F (stereo unspecified)
,0.25,CCN1CCc2c(c(-c3ccc(C(F)(F)F)c(SCC(=O)N4CCCC4)c3)nn2CC(O)CN2CCC(c3ccccn3)CC2)C1 (racemic)
0.34,,CS(=O)(=O)N1CCc2c(c(-c3ccc(C(F)(F)F)c(SCC(=O)N4CCC(CO)CC4)c3)nn2CCCN2CCC(N3CCCC3=O)CC2)C1
0.16,,O=C(CSc1cc(-c2nn(CC(O)CN3CCC(c4ccccn4)CC3)c3c2CN(C(=O)CO)CC3)ccc1C(F)(F)F)N1CCOCC1 (racemic)
> 10,,CS(=O)(=O)N1CCc2c(c(-c3ccc(C(F)(F)F)c(SCCNC(=O)Cc4ccccc4)c3)nn2CC(O)CN2CCC(N3CCCC3=O)CC2)C1 (stereo unspecified)
0.9,,COc1ccccc1C1CCN(CC(O)Cn2nc(-c3ccc(C(F)(F)F)c(SCC(=O)N4CCOCC4)c3)c3c2CCN(C(C)=O)C3)CC1 (racemic)
0.52,,CS(=O)(=O)N1CCc2c(c(-c3ccc(C(F)(F)F)c(SCC(=O)N4CCC(O)C4)c3)nn2CCCN2CCC(N3CCCC3=O)CC2)C1 (racemic)
0.03,0.007,CS(=O)(=O)N1CCc2c(c(-c3ccc(C(F)(F)F)c(SCC(=O)N4CC[C@H](O)C4)c3)nn2CC(O)CN2CCC(c3ccccn3)CC2)C1 (stereo partly specified)
0.11,0.74,CN1CCN(C(=O)CSc2cc(-c3nn(CCCN4CCC(N5CCCC5=O)CC4)c4c3CN(S(C)(=O)=O)CC4)ccc2C(F)(F)F)CC1
3.13,0.01,CS(=O)(=O)N1CCc2c(c(-c3ccc(C(F)(F)F)c(SCC(=O)N4CCOCC4)c3)nn2CC(O)CN2CCC(c3ccccc3F)CC2)C1 (racemic)
10,,CS(=O)(=O)N1CCc2c(c(-c3ccc(C(F)(F)F)c(SCC(=O)NCc4ccccc4)c3)nn2CCCN2CCC(N3CCCC3=O)CC2)C1
10,0.3,C[C@H]1CCCCN1CC(O)Cn1nc(-c2ccc(C(F)(F)F)c(SCC(=O)N3CCOCC3)c2)c2c1CCN(S(C)(=O)=O)C2 (mixture of isomers)
1.54,,CS(=O)(=O)N1CCc2c(c(-c3ccc(C(F)(F)F)c(SCC(=O)N4CCCCC4)c3)nn2CC(O)CN2CCC(c3ccccn3)CC2)C1 (stereo unspecified)
